This note sets out measurements from US20260158015A1 (Universite De Bordeaux, priority 2021, published 2026).

Data set [1] relates to SARS-CoV-2 reference strain. As to the kind of experiment: SARS-CoV-2 replication in A549-ACE2 cells (viral genome copies, RT-qPCR). In kind it is cell-based.
The subject of data set [2] is VSVg pseudotyped LV. In kind it is cell-based.
Data set [3] is described as follows: MTT cytotoxicity (CC50) in A549-ACE2 cells. In kind it is cell-based. Particulars: human, A 549-ACE2 cells, four-parameter sigmoidal fit, unit inferred. On the procedure: (§1) MTT cell viability assay was performed following furnisher protocols. Cells were seeded at the density of 20,000 cells/well in a 96 well plate containing 100 μL complete DMEM (Gibco, USA) supplemented with 10% FBS (Gibco, USA) and 1% Penstrep (Gibco, USA). Cells were incubated for 12 hours at 37° C. in humidified 5% CO2 incubator for adherence. After 12-hour incubation, the media was replaced with fresh media, and cells were treated with compounds. Untreated cells were considered as negative control, DMSO treated cells were considered as the vehicles. After the treatment, cells were incubated at 37° C. in humidified 5% CO2 incubator. 48-hour post-treatment, 20 μL of MTT substrate (5 mg/mL) was added in each well and incubated for 4 additional hours at 37° C. in the dark. The media was then carefully removed, and 492 nm absorbance was measured.

The subject of data set [4] is HEK-293T, A549, Calu3 and Caco2 cell lines.
The nature of data set [5]: MTT cytotoxicity (CC50) in 293-ACE2 cells. In kind it is cell-based. Particulars: human, four-parameter sigmoidal fit, unit inferred. On the procedure:
as §1

The subject of data set [6] is SARS-CoV-2. As to the kind of experiment: SARS-CoV-2 inhibition summarised over all the cell lines. In kind it is cell-based. Particulars: Severe acute respiratory syndrome coronavirus 2.
The nature of data set [7]: MTT cytotoxicity (CC50) in Calu3 cells. In kind it is cell-based. Particulars: human, four-parameter sigmoidal fit, unit inferred. On the procedure: as §1
In data set [8] the test system is lentiviral vectors pseudotyped with the SARS-CoV-2 Spike protein (CoV-2 LV). As to the kind of experiment: microbe, parasite or virus in culture. In kind it is cell-based.
Data set [9] concerns SARS-CoV-2 reference strain. As to the kind of experiment: SARS-CoV-2 replication in Calu3 cells (viral genome copies, RT-qPCR). In kind it is cell-based. In general terms: Quantitative PCR measures a nucleic acid by following its amplification.

Bounds are passed on as bounds.

As for `CC(C)c1nc(CN(C)C(=O)N[C@H](C(=O)N[C@@H](Cc2ccccc2)C[C@H](O)[C@H](Cc2ccccc2)NC(=O)OCc2cncs2)C(C)C)cs1` [Ritonavir, reference compound], the “comparative efficiency in inhibiting the SARS-CoV-2 replication” value in data set [1] is “AB-00011778 was more efficient than the Ritonavir molecule”.
As usually defined, the CC50 is the concentration at which the toxic effect on the cells reaches its halfway point. Read a high CC50 as lower toxicity to the cells. A word on the inhibition: it is the relative decrease from the control value, in per cent. With `O=S(=O)(c1ccccc1)n1c(-c2cncc(-c3cc4cc(OCc5ccccc5)ccc4n3S(=O)(=O)c3ccccc3)c2)cc2cc(OCc3ccccc3)ccc21` [AB-00011778], the “effect on the VSVg LVs infectivity” value in data set [2] is reported as “without significant effect”. Moreover, the CC50 at 48 h in data set [3] is > 30 µM; in data set [5] it was > 50 µM; in data set [7], > 30 µM. The “comparative efficiency in inhibiting the SARS-CoV-2 replication” value in [1] is “more efficient than the Ritonavir molecule”. The IC50 in data set [1] (Severe acute respiratory syndrome coronavirus 2, A549-ACE2, A 549-ACE2 cells, apparent IC50, unit inferred) is 0.25 µM; in data set [6] (read-out: IC50 among all the cell lines), 0.25 to 5 µM; in data set [8] (Severe acute respiratory syndrome coronavirus 2, 293-ACE2 cells, apparent IC50, unit inferred), 1 µM; in data set [9] (Severe acute respiratory syndrome coronavirus 2, Calu-3, SARS-CoV-2 reference strain, 24 hours, read-out: concentration giving 50% inhibition of the viral replication), ~1 µM; in data set [9] (Severe acute respiratory syndrome coronavirus 2, Calu-3, apparent IC50, unit inferred, read-out: IC50), 1 µM. Further, the “cytotoxicity in various cell lines” value in data set [4] (various cell lines, no concentration stated) is recorded as “without showing significant cyto-toxicity”. Further, the “cytotoxicity (MTT assay)” value in [4] (within the 0-50 μM range, HEK-293T, A549, Calu3 and Caco2) is reported as “no or poor cytotoxicity”. In addition, in data set [6] (at 1 μM, pulmonary A549-ACE2 and Calu3 cells, read-out: inhibition of virus replication), the inhibition at 1 µM was 40 to 60%. Further, the “decrease of the viral infectivity (CoV-2 LVs)” value in data set [8] is listed as 40 to 80%.
